# In patent US20090298708A1, “2'-DEOXY-2'-FLUORO-BETA-D-ARABINONUCLEOSIDE 5'-TRIPHOSPHATES AND THEIR USE IN ENZYMATIC NUCLEIC ACID SYNTHESIS” (priority 2006, published 2009):
# Tests used:
# [1] = biological target: T1, 9N DNA polymerase (Thermococcus sp., UniProt Q56366, E143D); assay: Dropout assay, fidelity of incorporation by 9N; type: biochemical, Thermococcus species (strain 9° N-7); conditions: 30 min reaction time, 25 μM triphosphates, 55° C., template A: PF41, G: PF43, T: PF21, C: PF23
# T1 construct: purchased New England Biolabs; host or cells: E. coli
# Description: (§1) FIG. 11A illustrates the fidelity of 2′F-araATP incorporation on a DNA template PF41 by DV and 9N DNA polymerases. Reaction conditions: 0.8 unit DV and 9N, 25 μM triphosphates at 55° C. in 30 μL reaction volume; incubation time: 30 min. Group 1 & 5: dNTPs; 2 & 6: dropout of dATP; 3 & 7: 2′F-araNTPs, 4 & 8: dropout of 2′F-araATP; 27mer control DNA is PF39.
# (§2) FIG. 11B illustrates the fidelity of 2′F-araGTP incorporation on DNA template PF43 by DV and 9N DNA polymerases. Reaction conditions: primer/template (1:1 molar ratio): 100 nM; 0.4 μL (0.8 unit) DV, 9N, 25 μM triphosphate concentration at 55° C. in 30 μL reaction volume. Reaction time for dNTPs (group 1, 5) was 30 min and others were shown above. Group 1 & 5: dNTPs; 2 & 6: drop out dGTP (i.e. dTTP, dCTP and dATP), 3 & 7: 2TF-araNTPs, 4 & 8: drop out 2′F-araGTP; lane P is the template PF41 as the full-length product control; PF39 is a 27-nt DNA control. All samples were analyzed by 12% denaturing PAGE.
# (§3) FIG. 12A illustrates the fidelity of 2′F-araTTP incorporation by DV and 9N DNA polymerases on a DNA template PF21. Reaction conditions: 100 nM primer/template (1:1 molar ratio); 0.4 μL (0.8 unit) DV or 9N, 25 μM triphosphate concentration at 55° C. in 30 μL reaction volume. Reaction time for dNTPs (group 1, 5) was 30 min and others were shown above. Groups 1 & 5: dNTPs; 2 & 6: drop out dTTP; 3 & 7: 2′F-araNTPs; 4 & 8: drop out 2′F-araTTPs. in B: group 1 & 5: dNTPs; 2 & 6: drop out dCTP; 3 & 7: 2′F-araNTPs; 4 & 8: drop out 2′F-araCTPs; PF39 is a 27-nt DNA control. All samples were analyzed by 12% denaturing PAGE.
# as §3, with “12B” for “12A”, “fidelity study” for “fidelity”, “2′F-araCTP” for “2′F-araTTP”, “PF23.” for “PF21.”, “(groups” for “(group”, “Groups” for “Groups 1 & 5: dNTPs; 2 & 6: drop out dTTP; 3 & 7: 2′F-araNTPs; 4 & 8: drop out 2′F-araTTPs. in B: group”
# (§4) “Dropout assays” (Ichida et al. (2005) J. Am. Chem. Soc. 127:2802-2803) were conducted to assess the fidelity of 2′F-araNTP incorporation (each of 2′F-araATP, 2′F-araCTP, 2′F-araGTP and 2′F-araTTP) by various DNA polymerases (FIGS. 11-14). For example, the 2′F-araNTP of interest is removed from the pool, and the ensuing synthesis on DNA template (e.g. PF21, PF23, PF41, PF43) assessed in comparison with a control reaction containing all four 2′F-araNTPs. For comparison, dropout experiments containing dNTPs are run in parallel. Full-length DNA and FANA products are obtained when all four dNTPs (group 1 and 5) and 2′F-araNTPs (groups 3 and 7) were available, however, some pausing may occur during synthesis of the arabinose modified oligomers. Apparent fidelity was calculated according to the equation:
# (§5) 1−[(% full-length−2′F-araNTP)/(% full-length+2′F-araNTP)]
# (§6) at 30 min reaction time (sample equation for dNTP values). >99% means that the full-length product was not detectable in our dropout assays.
# (§7) “Dropout assays” (Ichida et al. (2005) J. Am. Chem. Soc. 127:2802-2803) were conducted to assess apparent fidelity of 2′F-araNTP incorporation by DV and 9N. In one of these assays, 2′F-araATP was removed from the pool, and the ensuing synthesis assessed in comparison with a control reaction containing all four 2′F-araNTPs. For comparison, dropout experiments containing dNTPs were run in parallel (FIGS. 11-14). Full-length DNA and FANA products were obtained when all four dNTPs (group 1 and 5) and 2′F-araNTPs (groups 3 and 7) were available, although some pausing was evident during synthesis of the arabinose modified oligomers.
# [2] = tested on: Phusion DNA polymerase (Ph); assay: Dropout assay, fidelity of incorporation by Ph; type: biochemical; conditions: 30 min reaction time, 55° C., templates PF21, PF41
# Text: FIG. 13 illustrates the fidelity of 2′F-araNTP incorporation on pyrimidine rich DNA template PF21 by Ph DNA polymerase. […] Template PF41 and primer PF20 are shown; PF39 is a 27-nt DNA control.
# FIG. 14 illustrates the fidelity of 2′F-araNTP incorporation on purine rich DNA template PF41 by Ph DNA polymerase. The base sequence of the primer, DNA template and resulting terminated products in different dropout conditions (condition 1-5) is shown. […] Lane 1: dNTPs; 2: drop out dCTP (i.e. dATP, dGTP and dTTP, shorten as AGT, same coding for lanes 3-5), lane 6: 2′F-araNTPs; 7: drop out 2′F-araCTP (i.e. 2′F-araATP, 2′F-araGTP, 2′F-araTTP, shorten as AGT; same coding for lanes 8-10). The template PF41 and the primer PF20 are shown; PF39 is a 27mer DNA control.
# For example, the 2′F-araNTP of interest is removed from the pool, and the ensuing synthesis on DNA template (e.g. PF21, PF23, PF41, PF43) assessed in comparison with a control reaction containing all four 2′F-araNTPs. For comparison, dropout experiments containing dNTPs are run in parallel. […] Apparent fidelity was calculated according to the equation:
# as §5
# In one of these assays, 2′F-araATP was removed from the pool, and the ensuing synthesis assessed in comparison with a control reaction containing all four 2′F-araNTPs. For comparison, dropout experiments containing dNTPs were run in parallel (FIGS. 11-14).
# Phusion DNA polymerase (Ph) was evaluated for fidelity of 2′F-araNTP incorporation using the same dropout assay. All four dropout experiments were conducted with the same DNA template PF21 (FIG. 13), or PF41 (FIG. 14).
# [3] = biological target: T2, DV DNA polymerase (Pyrococcus sp., UniProt Q51334, D141A/DEL493-1029/E143A); assay: Dropout assay, fidelity of incorporation by DV; type: biochemical, Pyrococcus species GB-D; conditions: 30 min reaction time, 25 μM triphosphates, 55° C., template A: PF41, G: PF43, T: PF21, C: PF23
# T2 construct: purchased New England Biolabs; host or cells: E. coli
# Description: as §1, §2, §3
# as §3, with “12B” for “12A”, “fidelity study” for “fidelity”, “2′F-araCTP” for “2′F-araTTP”, “PF23.” for “PF21.”, “(groups” for “(group”, “Groups” for “Groups 1 & 5: dNTPs; 2 & 6: drop out dTTP; 3 & 7: 2′F-araNTPs; 4 & 8: drop out 2′F-araTTPs. in B: group”
# as §4, §5, §6, §7
# [4] = tested on: DNA polymerases; assay: Primer extension assays, statement for all enzymes studied; type: biochemical; conditions: DNA template PF24; 9N, HIV, MMLV, DV
# [5] = biological target: T3, MMLV-RT (Moloney murine leukemia virus, UniProt P03355); assay: Primer extension assay with MMLV-RT; type: biochemical; conditions: MMLV-RT; 37° C.; DNA template PF22 (T/U triphosphates) or PF24 (C triphosphates); three contiguous units
# T3 construct: Reverse transcriptases (RT): • MMLV-RT (MMLV or MM; source: Fermentas); purchased Fermentas
# Text: (§8) Primer extension assays were used to assess the incorporation of 2′F-araNTP on the various DNA templates (Table 1). The DNA primer (PF20) was first radioactively labeled at the 5′-hydroxyl terminus with a radioactive phosphorus probe and the enzyme T4 polynucleotide kinase (T4 PNK) (see Example 1 for General Methods). To assess the incorporation of 2′F-araNTPs, the primer and template were annealed, and the nucleoside 5′-triphosphates added in the presence of enzyme under the conditions specified in Table 2. Time points were obtained by analyzing small aliquots from the reaction mixture through polyacryamide gel electrophoresis (PAGE) and autoradiography.
# (§9) Primer extension assays were used to assess the incorporation efficiency of contiguous 2′F-ara(T/C)TPs compared to 2′F-r(U/C)TP on a DNA template (e.g. PF22 or PF24). To this end, a DNA template (e.g. PF22: FIGS. 15, 16, 17A, 18, 21A; PF24: FIGS. 17B, 19, 20, 21B), primer and the appropriate NTPs (e.g. combination of dATP/dCTP/dGTP/ and NTP, where N=dT, 2′F-araT, 2′F-rU, or rU (FIGS. 15, 16, 17A, 18, 21A); or combination of dATP/dGTP/dTTP/ and NTP, where N=dC, 2′F-araC, 2′F-rC, or rC (FIGS. 17B, 19, 20, 21B)), were incubated in the presence one of MMLV-RT, 9N, HIV or DV polymerase. The protocols and conditions are described in Example 2 and Table 2.
# (§10) Unless otherwise noticed in the Examples described below, the conditions used in the primer extension assays, such as dNTP concentration, reaction temperatures, concentration of Mg^2+, and reaction buffers (provided by the manufacturers, except for the HIV buffer which was prepared in-house) are shown in Table 2.
# (§11) Primer extension assays were used to assess the incorporation of 2′F-araTTP on the DNA template (PF22). The DNA primer (PF20) was first radioactively labeled at the 5′-hydroxyl terminus with a radioactive phosphorus probe and the enzyme T4 polynucleotide kinase (T4 PNK) according to the manufacturer's specifications (MBI Fermentas Life Sciences, Burlington, ON). Incorporation of the ^32P label was accomplished in reaction mixtures consisting of DNA substrate (200 pmol), 2 μl loxreaction buffer (Buffer A for forward reaction: 500 mM Tris-HCl, pH 7.6 at 25° C., 100 mM MgCl2, 50 mM DTT, 1 mM spermidine and 1 mM EDTA), 1 μl T4 PNK enzyme solution (10 U/1 μl in a solution of 20 mM Tris-HCl, pH 7.5, 25 mM KCl, 0.1 mM EDTA, 2 mM DTT and 50% glycerol), 6 μl [γ-^32P]-ATP solution (6000 Ci/mmol, 10 mCi/ml; Amersham Biosciences, Inc.) and autoclaved sterile water to a final volume of 20 μl. The reaction mixture was incubated for about 45-60 min at 37° C., followed by a second incubation for 10 min at 95° C. to heat denature and deactivate the kinase enzyme. The solution was purified according to a standard protocol and the isolated yield of 5′-^32P-DNA following gel extraction averages 50%. The pure labeled samples were kept at −20° C. for future use.
# (§12) Usually 2 or 3 folds of cold (unlabeled) DNA primer were combined with the radioactive primer. Then primer to template was mixed together with the final concentration at 85 nM for the primer and 255 nM for the template (i.e. the primer:template=1:3 molar ratio). The primer and template were heated at 95° C. for 5 min and annealed at 4° C. for at least two hours before use. In an Eppendorf tube, the following reagents, 5× or 10× buffer, nucleoside 5′-triphosphates (DATP, dGTP, dCTP, 2′F-araTTP at the same concentrations; see legend of FIG. 2), water, the primer and template mixture, were added together according to pre-calculated reaction volume (20 μL) and concentrations (see reaction conditions in Table 2). Mineral oil (20 μL) was usually used to prevent evaporation. The reaction mixture was incubated at either 37° C. or 55° C. and one of the various enzymes tested was added to initiate the primer extension reactions. […]
# [6] = biological target: T4, HIV-1 RT (recombinant) (Human immunodeficiency virus type 1 group M subtype B, UniProt P04585); assay: Primer extension assay with HIV-1 RT; type: biochemical; conditions: 37° C., DNA template PF22 (T/U triphosphates) or PF24 (C triphosphates), three contiguous units
# T4 construct: Reverse transcriptases (RT): • MMLV-RT (MMLV or MM; source: Fermentas); • HIV-1 RT (recombinant); purchased Worthington Biochemical Corp
# Text: as §8, §9, §10, §11, §12
# [7] = biological target: Phusion High-Fidelity DNA polymerase (Ph) (UniProt P61875); conditions: apparent fidelity, all 2'F-araNTP and dNTP dropouts; 55 C
Compound,"% Apparent Fidelity, dNTP [1] [%]","% Apparent Fidelity, dNTP [2] [%]","% Apparent Fidelity, dNTP [3] [%]",Order of efficiency of incorporation [5],Order of efficiency of incorporation [6],activity [7] [%],also measured
Nc1ncnc2c1ncn2[C@H]1C[C@H](O)[C@@H](COP(=O)(O)OP(=O)(O)OP(=O)(O)O)O1 [dATP],80,>99,1,,,,
"Nc1ccn([C@@H]2O[C@H](COP(=O)(O)OP(=O)(O)OP(=O)(O)O)[C@@H](O)[C@H]2O)c(=O)n1 [rCTP, reference compound]",,,,dCTP~2′F-rCTP ≧ 2′F-araCTP > CTP,dCTP~2′F-rCTP ≧ 2′F-araCTP > CTP,,order of incorporation efficiency [4]: dCTP=2′F-rCTP>2′F-araCTP >>rCTP
TAATACGACTCACTATA / AGAGCCTGAGAAGAGAGTATAGTGAGTCGTATTA [PF20/PF41 primer-template],,,,,,> 99,
TAATACGACTCACTATA / TTTGCCACTCTTCTCCCTATAGTGAGTCGTATTA [PF20/PF21 primer-template],,,,,,> 99,
"O=c1ccn([C@@H]2O[C@H](COP(=O)(O)OP(=O)(O)OP(=O)(O)O)[C@@H](O)[C@H]2O)c(=O)[nH]1 [rUTP, reference compound]",,,,dTTP > 2′F-araTTP > 2′F-rUTP > UTP,dTTP > 2′F-araTTP > 2′F-rUTP > UTP,,
Nc1nc2c(ncn2[C@H]2C[C@H](O)[C@@H](COP(=O)(O)OP(=O)(O)OP(=O)(O)O)O2)c(=O)[nH]1 [dGTP],84,>99,62,,,,
